Measured values published in PMC6476888, “Design and synthesis of anticancer 1-hydroxynaphthalene-2-carboxanilides with a p53 independent mechanism of action” (Scientific Reports, 2019).
Like-named read-outs stand apart in the source and are kept apart here.

Assays:
HCT116^+/+ = experiment: Antiproliferative assay (MTS, 72 h) on HCT116 wild type; format: cell-based, human; settings: MTS, 72 h incubation, read-out: Activity IC50 HCT116^+/+
Procedure: (§1) All of the synthesized compounds were tested for their antiproliferative activity against human colon cancer (Table 1). We used both the wild-type and p53-negative cell lines (HCT116^+/+ and HCT116^−/−, respectively). Mutations in the TP53 gene are present in more than 50% of all cancers and often specifically correspond to a difficult therapy, resistance or a bad prognosis[60]–[63]. The active compounds were additionally tested for their cytotoxicity against normal human fibroblasts. We used 5-fluorouracil (5-FLU), doxorubicin (DOX) and CP-31398 as the standards. 5-FLU is one of the first antimetabolites that was dedicated for cancer treatment and is still used for a wide range of cancers including colon carcinoma. Doxorubicin is a DNA topoisomerase II poison with a high intercalating potency, which is able to induce apoptosis through the p53 pathway. Although DOX has been described as being ineffective in some p53 mutants, its level of activity against the p53 null lines is similar. CP-31398, on the other hand, is an experimental drug in the clinical phase and its mechanism of action is through the reactivation some of p53 mutants. Its activity against the p53 null cell lines is greatly diminished and is actually lower than its cytotoxicity.
(§2) The human colon cancer cell line HCT116 wild type was obtained from ATCC and the normal human fibroblast cell lines NHDF were obtained from PromoCell. The human colon cancer cell line HCT116 with a p53 deletion (p53^−/−) was kindly provided by Prof. M. Rusin from the Maria Sklodowska-Curie Memorial Cancer Centre and Institute of Oncology in Gliwice, Poland[89]. The cells were grown as monolayer cultures in Dulbecco’s modified Eagle’s medium with the antibiotic gentamicin (200 μL/100 mL medium) in 75 cm^2 flasks (Nunc). The DMEM for the HCT116 were supplemented with 12% heat-inactivated fetal bovine serum (Sigma-Aldrich, St. Louis, MO, USA) and for NHDF with 15% non-inactivated fetal bovine serum (Sigma Aldrich, St. Louis, MO, USA). The cells were cultured under standard conditions at 37 °C in a humidified atmosphere at 5% CO2.
(§3) The cells were seeded in 96-well plates (Nunc) at a density of 5,000 cells/well (HCT116) and 4,000 cells/well (NHDF) and incubated at 37 °C for 24 h. The assay was performed following a 72 h incubation with varying concentrations of the compounds that were being tested. Then, 20 µL of CellTiter 96® AQueous One Solution-MTS (Promega) was added to each well (with 100 µL DMEM without phenol red) and incubated for 1 h at 37 °C. The optical densities of the samples were analyzed at 490 nm using a Synergy 4 multi-plate reader (BioTek, Winooski, VT, USA). The results are expressed as the percentage of the control and were calculated as the inhibitory concentration (IC50) values (using a GraphPad Prism 7). The IC50 parameter was defined as the compound concentration that was necessary to reduce the proliferation of cells to 50% of the untreated control. Each individual compound was tested in triplicate in a single experiment with each experiment being repeated three or four times.

HCT116^−/− = experiment: Antiproliferative assay (MTS, 72 h) on HCT116 with p53 deletion; format: cell-based, human; settings: for IC50: MTS, 72 h incubation
Procedure: as §1, §2, §3

NHDF = experiment: Cytotoxicity (MTS, 72 h) against normal human fibroblasts; format: cell-based; settings: MTS, 72 h incubation
Procedure: as §1, §2, §3

CT-DNA = experiment: Spectrophotometric DNA intercalation assay; format: binding, calf; settings: for Changes in absorbance: bound to CT-DNA (18 µM), 1.5 h 37 °C, Tris-HCl pH 7.9; for % hypochromism / Δε: bound to CT-DNA; for red shift: wavelengths of maximum absorption, individual vs DNA-bound compound
Source text: The fused aromatic rings of the naphthalene moiety and halogen substituents in aniline may guarantee good intercalating properties[71],[72]. On the other hand, the intercalation of DNA may explain the high activity against both the wild-type and p53 mutants as was reported for a series of styrylquinolines. Binding to DNA causes the bases to mismatch or cleave, which results in the arrest of the cell cycle and apoptosis. The effectiveness of the p53 system is one of the most important factors in the response to therapy. We tested the intercalating properties of the selected compounds in a spectrophotometric assay on calf-thymus DNA. The absorption spectra of the tested compounds in the absence and presence of CT-DNA are presented in Figure S1 Supplementary Information and the spectral properties with doxorubicine and CP-31398 are summarized in Table 2.
For the DNA binding studies, Calf-thymus DNA (CT-DNA) was purchased from Sigma- Aldrich. The lyophilized CT-DNA was dissolved in 10 mM Tris-HCl, pH 7.9, mixed gently and left overnight at 4 °C. The purity of the CT-DNA solution was determined by measuring the ratio of UV absorbance at 260 and 280 nm. […] Then, the concentration of CT-DNA was determined from the absorbance at 260 nm using an extinction coefficient of 6600 M^−1cm^−1. The tested compounds including DOX and CP-31398 were dissolved to a concentration of 8.35 mM in DMSO, which was then used as the stock solution for preparing the various concentrations (25, 12.5, 6 and 3 µM) in 1 mL in 10 mM of Tris-HCl (pH 7.9). Afterwards, 18 µM CT-DNA was added to the prepared solutions, which were incubated for 1.5 h at 37 °C with occasional vortexing. The absorption spectra were measured using a Hitachi U-2900 spectrophotometer in the range of 200–500 nm. All absorption spectra were imported into OriginPro 8.0 and compared.

[1] = test system: p53/p21 system in the HCT116 cells; experiment: Western blot of p53/p21 activation; format: cell-based, human; settings: wild-type HCT116, 12 and 24 h
Procedure: Further exploration of the cell death model was performed by a western blot analysis of protein activation in response to incubation with the tested compound (Figs 6, 7). […] The proapoptotic activation of the p53/p21 system was noticeable after the first 12 hours and then became stronger after 24 h. This effect was not observed in the case of the p53 null cells, which were unable to synthesize this protein.
The HCT116 cells were seeded in 3-cm Petri dishes (Nunc) at a density of 0.5·10^6 cells/well and incubated overnight. […] The cells were harvested by trypsinization and washed with cold PBS. Next, the cells were centrifuged and suspended in an RIPA buffer (Thermo-Fisher Scientific) containing Halt Protease Inhibitor Cocktail (Thermo-Fisher Scientific), Halt Phosphatase Inhibitor Cocktail (Thermo-Fisher Scientific) along with 0.5 M EDTA and lysed for 20 min on ice. Then, the lysates were sonicated, centrifuged at 10,000 rpm for 10 min at 4 °C and the supernatants were collected for further analysis. The protein concentration was determined using a Micro BCA™ Protein Assay Kit (Thermo-Fisher Scientific, Waltham, MA, USA c) according to the manufacturer’s instructions. Equal amounts of the proteins (20 μg) were electrophoresed on SDS-Page gels and transferred onto nitrocellulose membranes. The membranes were blocked in 5% non-fat milk prepared in PBS containing 0.1% Tween-20 (TPBS) for 1 h. After blocking, the membranes were incubated with specific primary antibodies: p21^Waf1/Cip1, p53, cytochrome c, caspase-8, caspase-9, AIF, PARP, GAPDH and β-Actin overnight at 4 °C, and then washed and incubated with horseradish peroxidase (HRP)-conjugated secondary antibodies for 1 h at room temperature. All of the antibodies were purchased from CellSignaling (Danvers, MA, USA) and were diluted 1:1000 in 5% milk in TPBS. Finally, the membranes were washed and incubated with a SuperSignal™ West Pico Chemiluminescent Substrate (Thermo-Fisher Scientific). The chemiluminescence signals were captured using a ChemiDoc™ XRS+ System (Bio-Rad Laboratories, Hercules, CA, USA). The experiments were performed at least three times. Densitometric analysis was performed using ImageJ 1.41 software (Wayne Rasband, National Institutes of Health, USA).

[2] = for CP-31398 first value (312 nm band)

Structure (SMILES) | IC50 (HCT116^+/+; Homo sapiens, HCT-116) | IC50 (HCT116^−/−; Homo sapiens, HCT-116) | IC50 (NHDF; Homo sapiens, NHDF) | melting point | other results
COc1ccc(/C=C/c2nc(NCCCN(C)C)c3ccccc3n2)cc1 [CP-31398, reference compound] | – | – | – | – | IC50 (HCT116^+/+): 18.6 ± 0.92 µM; IC50 (HCT116^−/−): 26.3 ± 1.41 µM; IC50 (NHDF): 12.3 ± 0.54 µM; Changes in absorbance (CT-DNA): hypochromism; % hypochromism (CT-DNA; [2]): 41.4%; Δε (CT-DNA; [2]): 1515.6 M⁻¹ cm⁻¹; % hypochromism (CT-DNA; second value (350 nm band)): 37.4%; Δε (CT-DNA; second value (350 nm band)): 1693.3 M⁻¹ cm⁻¹; red shift (CT-DNA): 0 nm
O=C(Nc1c(F)c(F)cc(F)c1F)c1ccc2ccccc2c1O [4m] | 12 ± 0.92 µM | > 25 µM | > 25 µM | 160 to 163 °C | –
COc1ccc([N+](=O)[O-])cc1NC(=O)c1ccc2ccccc2c1O [2h] | 7.05 ± 1.75 µM | 7.42 ± 2.05 µM | > 25 µM | 215 to 218 °C | –
O=C(Nc1c(Br)cc(C(F)(F)F)cc1Br)c1ccc2ccccc2c1O [6l] | 9.37 ± 0.47 µM | 6.81 ± 2.66 µM | 20.4 ± 1.16 µM | 183 to 186 °C | –
O=C(Nc1ccc(Br)cc1F)c1ccc2ccccc2c1O [4r] | 15 ± 4.82 µM | 3.43 ± 0.69 µM | > 25 µM | 172 to 174 °C | selectivity towards the p53 null cells (HCT116 p53^−/− vs wild type) (HCT116^−/−): roughly 4.5 fold
O=C(Nc1cc(F)cc(C(F)(F)F)c1)c1ccc2ccccc2c1O [4×] | 9.01 ± 0.45 µM | > 25 µM | 24.1 ± 2.02 µM | 165 to 167 °C | –
O=C(Nc1cc(F)c(F)cc1F)c1ccc2ccccc2c1O [4j] | 1.87 ± 0.35 µM | 4.75 ± 0.05 µM | 24.52 ± 0.03 µM | 201 to 204 °C | –
O=C(Nc1ccc(F)c(F)c1F)c1ccc2ccccc2c1O [4i] | 4.28 ± 0.66 µM | 4.43 ± 0.66 µM | > 25 µM | 173 to 175 °C | –
O=C(Nc1ccc(F)c(C(F)(F)F)c1)c1ccc2ccccc2c1O [7m] | 12 ± 3.68 µM | 14.5 ± 4.53 µM | > 25 µM | 164 to 166 °C | –
O=C(Nc1ccc(Br)c(C(F)(F)F)c1)c1ccc2ccccc2c1O [7o] | > 25 µM | 13.9 ± 3.75 µM | > 25 µM | 172 to 173 °C | –
O=C(Nc1cc(F)ccc1Br)c1ccc2ccccc2c1O [6j] | 7.78 ± 1.37 µM | 5.83 ± 1.06 µM | > 25 µM | 187 to 190 °C | –
O=C(Nc1cccc(Cl)c1F)c1ccc2ccccc2c1O [4o] | 8.78 ± 2.18 µM | 6.76 ± 2.37 µM | > 25 µM | 172 to 174 °C | –
O=C(Nc1cc(Cl)ccc1F)c1ccc2ccccc2c1O [4s] | 8.66 ± 1.61 µM | 10.7 ± 1.73 µM | > 25 µM | 169 to 171 °C | –
COc1cc([N+](=O)[O-])ccc1NC(=O)c1ccc2ccccc2c1O [2g] | 2.62 ± 0.85 µM | 3.73 ± 1.09 µM | 7.53 ± 2.97 µM | 250 to 253 °C | –
O=C(Nc1ccc(Cl)c(C(F)(F)F)c1)c1ccc2ccccc2c1O [7n] | 9.66 ± 3.17 µM | 18.7 ± 2.78 µM | > 25 µM | 173 to 175 °C | –
O=C(Nc1c(F)c(F)c(F)c(F)c1F)c1ccc2ccccc2c1O [4n] | 11.6 ± 0.74 µM | 17.5 ± 0.76 µM | > 25 µM | 230 to 234 °C | –
O=C(Nc1ccc(F)cc1F)c1ccc2ccccc2c1O [4d] | 6.55 ± 0.83 µM | 11.4 ± 1.92 µM | > 25 µM | 185 to 187 °C | –
COc1cccc2c1C(=O)c1c(O)c3c(c(O)c1C2=O)C[C@@](O)(C(=O)CO)C[C@@H]3O[C@H]1C[C@H](N)[C@H](O)[C@H](C)O1 [DOX, doxorubicin, reference compound] | 0.34 ± 0.04 µM | 0.38 ± 0.03 µM | 3.38 ± 1.29 µM | – | Changes in absorbance (CT-DNA): hypochromism; % hypochromism (CT-DNA; [2]): 34.2%; Δε (CT-DNA; [2]): 3235.6 M⁻¹ cm⁻¹; red shift (CT-DNA): 10 nm; p21 protein amount [1]: dramatic increase; p53 protein amount / activation [1]: dramatic increase
Cc1ccc(C(F)(F)F)cc1NC(=O)c1ccc2ccccc2c1O [3i] | 8.41 ± 1.07 µM | 5.08 ± 1.23 µM | > 25 µM | 140 to 143 °C | –
O=C(Nc1ccc(C(F)(F)F)cc1Br)c1ccc2ccccc2c1O [6i] | 3.58 ± 1.25 µM | 2.19 ± 0.67 µM | 18.4 ± 1.23 µM | 168 to 170 °C | –
COc1ccc(Cl)c(NC(=O)c2ccc3ccccc3c2O)c1 [5p] | 24.1 ± 2.58 µM | 19.3 ± 2.09 µM | > 25 µM | 159 to 161 °C | –
